Test results from patent US4216127A, “Enkephalin analogues” (American Home Products Corporation, priority 1979, dated 1980).
Square brackets hold non-standard residues; d marks the D form. Ends that are not written are not given here.

Tests used:
CF-1 mice = assay: phenylbenzoquinone induced writhing test (modified Siegmund procedure); format: in vivo
Procedure: Biol. Med. 95 729-731 (1957), in which groups of ten CF-1 mice were administered, subcutaneously, known dosages of N(Me)Tyr--D--Asn--Gly--N(Me)Phe--D--Asn--NH2, as a compound representative of the group of compounds of this invention. Five minutes later, each animal received, i.p., 0.25 ml. of a 0.02 percent phenylbenzoquinone solution. The animals were observed over a ten minute period following the phenylbenzoquinone injection for the presence of writhing. […] The dose-response analysis was then performed according to Litchfiled et al., J. Pharmacol. exp. Therap. 96 99--113(1949). The ED50 for the test compound was 1.0 mg/kg (0.62-1.6) at 30 minutes by subcutaneous administration.

[1] = intracerebral (icv) administration; cited from earlier work
[2] = intravenous administration; more potent than morphine; cited from earlier work

Compound: CC(=O)O.CN[C@@H](Cc1ccc(O)cc1)C(=O)N[C@H](CC(N)=O)C(=O)NCC(=O)N(C)[C@@H](Cc1ccccc1)C(=O)N[C@H](CC(N)=O)C(N)=O [N-Methyl-L-tyrosyl-D-asparaginyl-glycyl-N-methyl-L-phenylalanyl-D-asparaginyl amide acetate]
- animals in which analgesia was observed (CF-1 mice; dose of 10 mg/kg, same procedure, for a period of forty five minutes): 100%
- ED50 (analgesia, absence of writhing) (CF-1 mice; subcutaneous administration, at 30 minutes, limits (0.62-1.6), groups of ten CF-1 mice): 1.0 mg/kg

Compound: II: pentapeptide Tyr--Gly--Gly--Phe--X where X=Met, isolated by Hughes et al. (YGGFM; printed: Tyr--Gly--Gly--Phe--Met)
- analgesic activity after icv administration [1]: analgesic activity only after intracerebral (icv) administration

Compound: Tyr--D--Ala--Gly--Phe--Met--NH2 [III]
- analgesic activity after icv administration [1]: potent and prolonged analgesia

Compound: Y[dM]GFP-NH2 [IV]
- potency relative to morphine [2]: 5.5 times
